The experiment deals with T1, endogenous PIP4K2C C-terminally tagged with HiBiT peptide in MOLT-4 cells (Homo sapiens, UniProt Q8TBX8).
T1 construct: to C-terminally tag endogenous PIP4K2C with HiBiT peptide; host or cells: MOLT-4 (CRISPR-Cas9 knock-in clone)
T1 sequence (Q8TBX8 1-421): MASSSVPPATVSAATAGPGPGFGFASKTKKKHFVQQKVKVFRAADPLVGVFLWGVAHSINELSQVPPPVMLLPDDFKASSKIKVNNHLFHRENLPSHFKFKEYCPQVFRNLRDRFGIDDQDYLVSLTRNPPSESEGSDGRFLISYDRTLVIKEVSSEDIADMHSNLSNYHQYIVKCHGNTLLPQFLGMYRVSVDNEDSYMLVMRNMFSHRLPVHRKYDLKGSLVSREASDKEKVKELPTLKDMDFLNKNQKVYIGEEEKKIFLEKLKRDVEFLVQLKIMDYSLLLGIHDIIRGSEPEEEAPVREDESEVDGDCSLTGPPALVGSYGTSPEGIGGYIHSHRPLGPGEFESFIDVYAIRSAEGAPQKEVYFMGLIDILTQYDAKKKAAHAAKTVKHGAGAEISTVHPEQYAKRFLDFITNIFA
The experiment is described as follows: HiBiT PIP4K2C degradation assay in MOLT-4 cells. The class given is cell-based. The settings on record: 24 hours, 10-point dose response, top concentration 10 micromolar, read-out: HiBIT-degradation MOLT4 PIP4k2C 24 hours DC50. Summed up:
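Cells bearing C-terminal HiBiT knock-in were exposed to a 10-point, 3-fold dilution series (top 10 micromolar, duplicate) for 24 h at 37C, 5% CO2. Remaining tagged protein read by lytic HiBiT luminescence; DC50 from Hill-equation fit.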

With `O=C1CCC(N2Cc3cc(NCCCCC(=O)N4CCC5(CC4)CCN(c4cncc(Nc6ncc(Cl)c(-c7cccc(-c8ccccc8)c7)n6)c4)C5=O)ccc3C2=O)C(=O)N1` (stereo not shown) [Compound 84, 3-(5-((5-(2-(5-((4-([1,1′-biphenyl]-3-yl)-5-chloropyrimidin-2-yl)amino)pyridin-3-yl)-1-oxo-2,8-diazaspiro[4.5]decan-8-yl)-5-oxopentyl)amino)-1-oxoisoindolin-2-yl)piperidine-2,6-dione], the DC50 was less than 500 nM.

Turning to `O=C1CCC(Nc2ccc(C3CCN(CC(=O)N4CCC5(CC4)CCN(c4cncc(Nc6ncc(Cl)c(N7CCC[C@@H](C(F)(F)F)C7)n6)c4)C5=O)CC3)cc2)C(=O)N1` (stereo partly drawn) [Compound 171, 3-((4-(1-(2-(2-(5-((5-chloro-4-((R)-3-(trifluoromethyl)piperidin-1-yl)pyrimidin-2-yl)amino)pyridin-3-yl)-1-oxo-2,8-diazaspiro[4.5]decan-8-yl)-2-oxoethyl)piperidin-4-yl)phenyl)amino)piperidine-2,6-dione], the DC50 was less than 500 nM.

On to `O=C(CCOc1cccc2c1C(=O)N(C1CCC(=O)NC1=O)C2=O)NCCCCCCCCC(=O)Nc1cncc(Nc2ncc(Cl)c(-c3cccc(-c4ccccc4)c3)n2)c1` (stereo not shown) [Compound 89, N-(5-((4-([1,1′-biphenyl]-3-yl)-5-chloropyrimidin-2-yl)amino)pyridin-3-yl)-9-(3-((2-(2,6-dioxopiperidin-3-yl)-1,3-dioxoisoindolin-4-yl)oxy)propanamido)nonanamide], for which the DC50 was less than 500 nM.

As for `O=C1CCC(Nc2ccc(N3CCC(CN4CCC5(CC4)CCN(c4cncc(Nc6ncc(Cl)c(-c7ccc(Cl)cc7)n6)c4)C5=O)CC3)cc2)C(=O)N1` (stereo not shown) [Compound 174, 3-((4-(4-((2-(5-((5-chloro-4-(4-chlorophenyl)pyrimidin-2-yl)amino)pyridin-3-yl)-1-oxo-2,8-diazaspiro[4.5]decan-8-yl)methyl)piperidin-1-yl)phenyl)amino)piperidine-2,6-dione], the DC50 lay within 1000 to 5000 nM.

As to `O=C(COc1cccc2c1C(=O)N(C1CCC(=O)NC1=O)C2=O)NCCCCCCCCCC(=O)Nc1cncc(Nc2ncc(Cl)c(-c3cccc(-c4ccccc4)c3)n2)c1` (stereo not shown) [Compound 85, N-(5-((4-([1,1′-biphenyl]-3-yl)-5-chloropyrimidin-2-yl)amino)pyridin-3-yl)-10-(2-((2-(2,6-dioxopiperidin-3-yl)-1,3-dioxoisoindolin-4-yl)oxy)acetamido)decanamide], the DC50 was 500 to 1000 nM.

For the compound `O=C1CCC(Nc2ccc(C3CCN(CC(=O)N4CCC5(CC4)CCN(c4cncc(Nc6ncc(Cl)c(N7CCC[C@H](C(F)(F)F)C7)n6)c4)C5=O)CC3)cc2)C(=O)N1` (stereo partly drawn) [Compound 172, 3-((4-(1-(2-(2-(5-((5-chloro-4-((S)-3-(trifluoromethyl)piperidin-1-yl)pyrimidin-2-yl)amino)pyridin-3-yl)-1-oxo-2,8-diazaspiro[4.5]decan-8-yl)-2-oxoethyl)piperidin-4-yl)phenyl)amino)piperidine-2,6-dione], the DC50 was less than 500 nM.

`O=C(CCCOc1cccc2c1C(=O)N(C1CCC(=O)NC1=O)C2=O)NCCCCCCCC(=O)Nc1cncc(Nc2ncc(Cl)c(-c3cccc(-c4ccccc4)c3)n2)c1` (stereo not shown) [Compound 81, N-(5-((4-([1,1′-biphenyl]-3-yl)-5-chloropyrimidin-2-yl)amino)pyridin-3-yl)-8-(4-((2-(2,6-dioxopiperidin-3-yl)-1,3-dioxoisoindolin-4-yl)oxy)butanamido)octanamide]: the half-maximal degradation concentration (DC50) was less than 500 nM.

For `O=C(COc1cccc2c1C(=O)N(C1CCC(=O)NC1=O)C2=O)NCCCCCCCC(=O)N1CCC2(CC1)CCN(c1cncc(Nc3ncc(Cl)c(-c4cccc(-c5ccccc5)c4)n3)c1)C2=O` (stereo not shown) [Compound 77, N-(8-(2-(5-((4-([1,1′-biphenyl]-3-yl)-5-chloropyrimidin-2-yl)amino)pyridin-3-yl)-1-oxo-2,8-diazaspiro[4.5]decan-8-yl)-8-oxooctyl)-2-((2-(2,6-dioxopiperidin-3-yl)-1,3-dioxoisoindolin-4-yl)oxy)acetamide], the DC50 is less than 500 nM.

On to `O=C1CCC(Nc2ccc(N3CCC(CC(=O)N4CCC5(CC4)CCN(c4cncc(Nc6ncc(Cl)c(-c7cccc(N8CCCCC8)c7)n6)c4)C5=O)CC3)cc2)C(=O)N1` (stereo not shown) [Compound 182, 3-((4-(4-(2-(2-(5-((5-chloro-4-(3-(piperidin-1-yl)phenyl)pyrimidin-2-yl)amino)pyridin-3-yl)-1-oxo-2,8-diazaspiro[4.5]decan-8-yl)-2-oxoethyl)piperidin-1-yl)phenyl)amino)piperidine-2,6-dione], for which the 50% degradation concentration (DC50) was less than 500 nM.

Regarding `O=C(COc1ccc(NC2CCC(=O)NC2=O)cc1)NCCCCCCCCCC(=O)Nc1cncc(Nc2ncc(Cl)c(-c3cccc(-c4ccccc4)c3)n2)c1` (stereo not shown) [Compound 55, N-(5-((4-([1,1′-biphenyl]-3-yl)-5-chloropyrimidin-2-yl)amino)pyridin-3-yl)-10-(2-(4-((2,6-dioxopiperidin-3-yl)amino)phenoxy)acetamido)decanamide], the DC50 is 500 to 1000 nM.

As to `O=C1CCC(N2C(=O)c3ccc(OCCCCCCCC(=O)N4CCC5(CC4)CCN(c4cncc(Nc6ncc(Cl)c(-c7cccc(-c8ccccc8)c7)n6)c4)C5=O)cc3C2=O)C(=O)N1` (stereo not shown) [Compound 73, 5-((8-(2-(5-((4-([1,1′-biphenyl]-3-yl)-5-chloropyrimidin-2-yl)amino)pyridin-3-yl)-1-oxo-2,8-diazaspiro[4.5]decan-8-yl)-8-oxooctyl)oxy)-2-(2,6-dioxopiperidin-3-yl)isoindoline-1,3-dione], the DC50 is less than 500 nM.

`O=C1CCC(N2C(=O)c3ccc(OCCCCC(=O)N4CCC5(CC4)CCN(c4cncc(Nc6ncc(Cl)c(-c7cccc(-c8ccccc8)c7)n6)c4)C5=O)cc3C2=O)C(=O)N1` (stereo not shown) [Compound 76, 5-((5-(2-(5-((4-([1,1′-biphenyl]-3-yl)-5-chloropyrimidin-2-yl)amino)pyridin-3-yl)-1-oxo-2,8-diazaspiro[4.5]decan-8-yl)-5-oxopentyl)oxy)-2-(2,6-dioxopiperidin-3-yl)isoindoline-1,3-dione]: the 50% degradation concentration (DC50) is less than 500 nM.

In the case of `O=C(COc1ccc2c(c1)C(=O)N(C1CCC(=O)NC1=O)C2=O)NCCCCCCCCCC(=O)Nc1cncc(Nc2ncc(Cl)c(-c3cccc(-c4ccccc4)c3)n2)c1` (stereo not shown) [Compound 59, N-(5-((4-([1,1′-biphenyl]-3-yl)-5-chloropyrimidin-2-yl)amino)pyridin-3-yl)-10-(2-((2-(2,6-dioxopiperidin-3-yl)-1,3-dioxoisoindolin-5-yl)oxy)acetamido)decanamide], the DC50 was in the range of 500 to 1000 nM.

With `O=C1CCC(N2Cc3cc(OC4CCN(C(=O)CN5CCC(C(=O)Nc6cncc(Nc7ncc(Cl)c(-c8cccc(C9CC9)c8)n7)c6)CC5)CC4)ccc3C2=O)C(=O)N1` (stereo not shown) [Compound 201, N-(5-((5-chloro-4-(3-cyclopropylphenyl)pyrimidin-2-yl)amino)pyridin-3-yl)-1-(2-(4-((2-(2,6-dioxopiperidin-3-yl)-1-oxoisoindolin-5-yl)oxy)piperidin-1-yl)-2-oxoethyl)piperidine-4-carboxamide], the DC50 was less than 500 nM.

With `O=C1CCC(Nc2ccc(C3CCN(CCN4CCC5(CC4)CCN(c4cncc(Nc6ncc(Cl)c(-c7cccc(C8CC8)c7)n6)c4)C5=O)CC3)cc2)C(=O)N1` (stereo not shown) [Compound 211, 3-((4-(1-(2-(2-(5-((5-chloro-4-(3-cyclopropylphenyl)pyrimidin-2-yl)amino)pyridin-3-yl)-1-oxo-2,8-diazaspiro[4.5]decan-8-yl)ethyl)piperidin-4-yl)phenyl)amino)piperidine-2,6-dione], the half-maximal degradation concentration (DC50) is less than 500 nM.

On to `O=C1CCC(Nc2ccc(N3CCC(CC(=O)N4CCC5(CC4)CCN(c4cncc(Nc6ncc(Cl)c(-c7cccc(C8CCCCC8)c7)n6)c4)C5=O)CC3)cc2)C(=O)N1` (stereo not shown) [Compound 189, 3-((4-(4-(2-(2-(5-((5-chloro-4-(3-cyclohexylphenyl)pyrimidin-2-yl)amino)pyridin-3-yl)-1-oxo-2,8-diazaspiro[4.5]decan-8-yl)-2-oxoethyl)piperidin-1-yl)phenyl)amino)piperidine-2,6-dione], for which the DC50 lay within 500 to 1000 nM.
